# In PMC4933562, “Bile salt receptor complex activates a pathogenic type III secretion system” (eLife, 2016):
# Key:
# VtrC (VPA1333) = molecular target: T1, VtrC (VPA1333) (Vibrio parahaemolyticus, UniProt Q87GI3+Q87GI4); experiment: ITC (n = […]) and […] Å co-crystal structure; format: binding
# T1 construct: periplasmic domains: VtrC aa 31–161 (N-terminal His-tagged) co-expressed with VtrA aa 161–253; with VtrA (VPA1332), periplasmic domain aa 161–253, obligate 1:1 heterodimer
# [1] = molecular target: N-terminal His-tagged VtrC periplasmic domain (aa 31-161) (Vibrio parahaemolyticus); experiment: SEC
Compound,Kd (VtrC (VPA1333)) [nM],stoichiometry N (VtrA per VtrC) [1]
"C[C@H](CCC(=O)NCCS(=O)(=O)O)[C@H]1CC[C@H]2[C@@H]3CC[C@@H]4C[C@H](O)CC[C@]4(C)[C@H]3C[C@H](O)[C@]12C [TDC, taurodeoxycholate]",315,–
"VtrA periplasmic domain (aa 161-253), co-expressed with VtrC (domain or fragment)",–,1
